Measured values taken from article PMC12527173, “Cytotoxic, anti-inflammatory, antioxidant, and anti-glyoxalase-I evaluation of chelating substances: In silico and in vitro study” (PLOS One, 2025).
Like-named read-outs stand apart in the source and are kept apart here.

Legend:
[1] = molecular target: T1, human recombinant Glo-I enzyme (rhGlo-I) (Homo sapiens, UniProt Q04760); assay: Glyoxalase-I (Glo-I) enzyme inhibition assay; format: biochemical; conditions: for Maximum (descriptive statistics of enzyme inhibition): highest mean inhibition over the tested concentrations; for Maximum (descriptive statistics of enzyme inhibition) / Minimum (descriptive statistics of enzyme inhibition): in % (unit assumed); for IC50: human recombinant Glo-I, triplicates, read-out: IC50 µM ± SD; for Minimum (descriptive statistics of enzyme inhibition): lowest mean inhibition over the tested concentrations
T1 construct: N-terminal Met and 6-His tag (N); purchased R&D Systems; host or cells: E. coli
T1 sequence (Q04760 2-184 limits assumed): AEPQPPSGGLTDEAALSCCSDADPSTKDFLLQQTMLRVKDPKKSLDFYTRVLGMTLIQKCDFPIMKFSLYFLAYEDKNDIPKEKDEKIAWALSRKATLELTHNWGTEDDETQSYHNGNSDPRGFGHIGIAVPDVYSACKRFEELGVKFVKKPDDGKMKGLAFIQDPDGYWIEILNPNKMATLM
Description: Solvents and chemicals were procured from Sigma-Aldrich Co. and Acros (ThermoFisher Scientific, New Jersey, USA). […] The enzyme was obtained from R&D Systems® Corporation in the USA. Synthetic compounds were tested for their inhibitory effects on the enzyme using a 10 mM DMSO stock concentration in triplicates. The manufacturer’s protocol from R & D Systems, Inc. in Minneapolis, MN, USA was followed for the in vitro experiments. The reconstituted Glo-I enzyme (0.5 mg/mL) was thawed after being stored at −70°C in sterile deionized water. […] The monitoring was done at a wavelength of 240 nm for 200 seconds at 37°C. The substrate mixture was freshly concocted with a concentration of 100 mM glutathione and 100 mM methylglyoxal (MG) in assay buffer containing 0.5 M sodium phosphate dibasic/monobasic. It was then left undisturbed at room temperature for 15 minutes […]. The selected compounds for investigation are subsequently produced in testing concentration ranges using a 0.1 M solution of sodium phosphate dibasic/monobasic with a pH range of 7–7.2. The blank contained an assay buffer with MG substrate. The test compounds were combined with human recombinant Glo-I (50 µM) in a 96-well plate to determine their kinetic behavior.

[2] = test system: CACO2 colorectal cancer cell line; assay: SRB cytotoxicity assay, CACO2; format: cell-based; conditions: Homo sapiens, Caco-2, 72 h incubation, n = 12, read-out: Cytotoxicity (as of %Control) IC50 value CACO2
Description: (§1) The cancer cell lines were cultured in DMEM supplemented with 10% FBS (Bio Whittaker, Verviers, Belgium), HEPES Buffer (10 mM), gentamicin (50 µg/mL), L-glutamine (100 μg/mL), streptomycin ([…]), penicillin (100 µg/mL), and 4-(2-hydroxyethyl)-1-piperazineethanesulfonic acid (HEPES) Buffer (Sigma, St. Luis, MO, USA). The Sulforhodamine B used was obtained from Santa Cruz Biotechnology, Inc. in Texas, USA. […] Periodontal ligament fibroblasts (PDL) were utilized to assess specific cytotoxicity. Cancer cell lines that have survived offer several benefits. They provide a consistent and uninterrupted source of cells, so bypassing any ethical concerns related to the use of human tissue. Additionally, they are cost-effective. The cytotoxicity levels were assessed using the Sulforhodamine B (SRB) colorimetric assay, provided by Santa Cruz Biotechnology, Inc. in Texas, USA. The Spectro Scan 80D UV-VIS spectrophotometer, manufactured by Sedico Ltd. in Nicosia, Cyprus, was employed for this cytotoxicity screening. The cells were co-incubated with substances or a reference agent at various doses ranging from 5 to 200 μg/mL. […] The reduction in cell viability was analyzed by plotting Dose-response curves and expressing the data as a percentage of the control optical density. The IC50 values were obtained using regression analysis.

[3] = test system: SW480 colorectal cancer cell line; assay: SRB cytotoxicity assay, SW480; format: cell-based; conditions: Homo sapiens, 72 h incubation, n = 12, read-out: Cytotoxicity (as of %Control) IC50 value SW480
Description: as §1

[4] = test system: HCT116 colorectal cancer cell line; assay: SRB cytotoxicity assay, HCT116; format: cell-based; conditions: Homo sapiens, HCT-116, 72 h incubation, n = 12, read-out: Cytotoxicity (as of %Control) IC50 value HCT116
Description: as §1

[5] = test system: SW620 colorectal cancer cell line; assay: SRB cytotoxicity assay, SW620; format: cell-based; conditions: Homo sapiens, SW-620, 72 h incubation, n = 12, read-out: Cytotoxicity (as of %Control) IC50 value SW620
Description: as §1

[6] = test system: HT-29 colorectal cancer cell line; assay: SRB cytotoxicity assay, HT29; format: cell-based; conditions: Homo sapiens, 72 h incubation, n = 12, read-out: Cytotoxicity (as of %Control) IC50 value HT29
Description: as §1

[7] = test system: PANC1 pancreatic cell line; assay: SRB cytotoxicity assay, PANC1; format: cell-based; conditions: Homo sapiens, PANC-1, 72 h incubation, n = 12, read-out: Cytotoxicity (as of %Control) IC50 value PANC1
Description: as §1

[8] = SRB cytotoxicity assay, normal PDL fibroblasts; format: cell-based; conditions: normal periodontal ligament (PDL) fibroblasts, 72 h incubation, 0.1–200 µM range, read-out: Cytotoxicity (as of %Control) IC50 value PDL fibroblasts
Description: as §1

[9] = test system: A375 human skin cancer cell line; assay: SRB cytotoxicity assay, A375; format: cell-based; conditions: A-375, 72 h incubation, n = 12, read-out: Cytotoxicity (as of %Control) IC50 value A375 skin melanoma
Description: as §1

[10] = test system: A549 lung cancer cell line; assay: SRB cytotoxicity assay, A549; format: cell-based; conditions: Homo sapiens, 72 h incubation, n = 12, read-out: Cytotoxicity (as of %Control) IC50 value A549 lung malignancy
Description: as §1

[11] = test system: Human PC3 prostate cancer cell line; assay: SRB cytotoxicity assay, PC3; format: cell-based; conditions: 72 h incubation, n = 12, read-out: Cytotoxicity (as of %Control) IC50 value PC3 prostate malignancy
Description: as §1

[12] = test system: Breast cancer cell line MCF7; assay: SRB cytotoxicity assay, MCF7; format: cell-based; conditions: Homo sapiens, 72 h incubation, n = 12, read-out: Cytotoxicity (as of %Control) IC50 value MCF7 mammary malignancy
Description: as §1

[13] = test system: T47D breast cancer cell line; assay: SRB cytotoxicity assay, T47D; format: cell-based; conditions: Homo sapiens, 72 h incubation, n = 12, read-out: Cytotoxicity (as of %Control) IC50 value T47D mammary malignancy
Description: as §1

[14] = test system: HeLa uterine cervix adenocarcinoma cell line; assay: SRB cytotoxicity assay, HeLa; format: cell-based; conditions: Homo sapiens, 72 h incubation, n = 12, read-out: Cytotoxicity (as of %Control) IC50 value Hela cervix malignancy
Description: as §1

[15] = read-out: Trial one (%inhibtion)
[16] = read-out: Trial three (%inhibtion)
[17] = read-out: Trial two (%inhibtion)

inhibition at 3.125 µM [1, 15] | inhibition at 3.125 µM [1, 16] | inhibition at 3.125 µM [1, 17] | inhibition at 6.25 µM [1, 15] | inhibition at 6.25 µM [1, 16] | inhibition at 6.25 µM [1, 17] | inhibition at 12.5 µM [1, 15] | inhibition at 12.5 µM [1, 16] | inhibition at 12.5 µM [1, 17] | inhibition at 25 µM [1, 15] | inhibition at 25 µM [1, 16] | inhibition at 25 µM [1, 17] | inhibition at 50 µM [1, 15] | inhibition at 50 µM [1, 16] | inhibition at 50 µM [1, 17] | Maximum (descriptive statistics of enzyme inhibition) [1] | IC50 [1] | Minimum (descriptive statistics of enzyme inhibition) [1] | SMILES | IC50 [2] | IC50 [3] | other results
12.3% | 20.4% | 19.4% | 28% | 36.3% | 39.7% | 54.2% | 56.5% | 60.9% | 78.1% | 80.9% | 82.1% | 96.1% | 102% | 97.6% | 98.66 | 9.6 µM | 17.38 | Cc1ccc(C(=O)c2cc(O)c(O)c([N+](=O)[O-])c2)cc1 [Tolcapone, reference compound] | 94.8 ± 6.65 µM | 165 ± 6.58 µM | IC50 [4]: 86.2 ± 6.6 µM; IC50 [5]: 105 ± 8.35 µM; IC50 [6]: 63.3 ± 1.03 µM; IC50 [7]: 119 ± 9.28 µM; IC50 at 72 h [8]: > 200 µM; IC50 [9]: 64.1 ± 1.1 µM; IC50 [10]: 62 ± 2.21 µM; IC50 [11]: 257 ± 37.1 µM; IC50 [12]: 25.6 ± 1.49 µM; IC50 [13]: 26.9 ± 0.35 µM; IC50 [14]: 39.35 ± 0.35 µM
13.2% | 7.44% | 2.77% | 22.3% | 14.2% | 16.5% | 29.4% | 24.7% | 25% | 39.7% | 33.7% | 38.4% | 52.1% | 38.8% | 51.1% | 47.33 | 43.5 ± 15.6 µM | 7.808 | CC(/C=C/C(=O)NO)=C\[C@@H](C)C(=O)c1ccc(N(C)C)cc1 [Trichostatin A, reference compound] | 27.1 ± 1.28 µM | 44.3 ± 4.67 µM | IC50 [4]: 14 ± 2.5 µM; IC50 [5]: 19.5 µM; IC50 [6]: 27 ± 0.85 µM; IC50 [7]: 95.8 ± 8.2 µM; IC50 at 72 h [8]: > 200 µM; IC50 [9]: 5.6 ± 0.6 µM; IC50 [10]: 2 ± 0.21 µM; IC50 [11]: 47.5 ± 3.96 µM; IC50 [12]: 2.25 ± 0.49 µM; IC50 [13]: 14.7 ± 0.28 µM; IC50 [14]: 1.4 ± 0.2 µM
